From publication PMC8067507, “Aryl Urea Based Scaffolds for Multitarget Drug Discovery in Anticancer Immunotherapies” (Pharmaceuticals, 2021) come the findings set out here.

What all share (experiment): Cell proliferation assay (MTT)
Common to all, as to format: cell-based

Assay [1] deals with HMEC-1 (human microvascular endothelial cells). Particulars: HMEC-1, 48 h, 2 days incubation, average ± SD of three experiments. The source says: (§1) The ability of Ureas 13–33 to inhibit cell proliferation was established by means of their IC50 values towards the human tumor cell lines HT-29 (colon adenocarcinoma), MCF-7 (breast adenocarcinoma), HeLa (epithelioid cervix carcinoma) and A549 (pulmonary adenocarcinoma), as well as towards the endothelial cell line HMEC-1 (human microvascular endothelial cells) and the non-tumor cell line HEK-293 (human embryonic kidney cells).
(§2) HT-29, MCF-7, HeLa, A549 and HEK-293 cell lines were maintained in Dulbecco’s modified Eagle’s medium (DMEM) containing glucose (1 g/L), glutamine (2 mM), penicillin (50 μg/mL), streptomycin (50 μg/mL), and amphotericin B (1.25 μg/mL), supplemented with 10% FBS. HMEC-1 cell line was maintained in Dulbecco’s modified Eagle’s medium (DMEM)/low glucose containing glutamine (2 mM), penicillin (50 μg/mL), streptomycin (50 μg/mL), and amphotericin B (1.25 μg/mL), supplemented with 10% FBS. For the development of tube formation assays in Matrigel, HMEC-1 cells were cultured in EGM-2MV Medium supplemented with EGM-2MV SingleQuots.
(§3) In 96-well plates, 3 × 10^3 (HeLa, A549, HMEC-1, HEK-293) or 5 × 10^3 (HT-29, MCF-7) cells per well were incubated with serial dilutions of the tested compounds in a total volume of 100 μL of their respective growth media. The 3-(4,5-dimethylthiazol-2-yl)-2,5-diphenyltetrazolium bromide (MTT; Sigma Chemical Co.) dye reduction assay in 96-well microplates was used. After 2 days of incubation (37 °C, 5% CO2 in a humid atmosphere), 10 μL of MTT (5 mg/mL in phosphate-buffered saline, PBS) was added to each well, and the plate was incubated for a further 3 h (37 °C). After that, the supernatant was discarded and replaced by 100 µL of DMSO to dissolve formazan crystals. The absorbance was then read at 540 nm by spectrophotometry. For all concentrations of compound, cell viability was expressed as the percentage of the ratio between the mean absorbance of treated cells and the mean absorbance of untreated cells. Three independent experiments were performed, and the IC50 values (i.e., concentration half inhibiting cell proliferation) were graphically determined using GraphPad Prism 4 software.

For assay [2], the system named is HT-29 (colon adenocarcinoma). Particulars: Homo sapiens, HT-29, 48 h, 2 days incubation, average ± SD of three experiments.
From the text: as §1, §2, §3

In assay [3] the test system is A549 (pulmonary adenocarcinoma). The conditions noted are these: Homo sapiens, A549, 48 h, 2 days incubation, average ± SD of three experiments.
From the text: as §1, §2, §3

The subject of assay [4] is HEK-293 (human embryonic kidney cells). Particulars: HEK293, 48 h, 2 days incubation, average ± SD of three experiments.
From the text: as §1, §2, §3

Assay [5] has as its system HeLa (epithelioid cervix carcinoma). The conditions noted are these: Homo sapiens, 48 h, 2 days incubation, average ± SD of three experiments.
From the text: as §1, §2, §3

Assay [6] deals with MCF-7 (breast adenocarcinoma). Particulars: Homo sapiens, MCF7, 48 h, 2 days incubation, average ± SD of three experiments.
From the text: as §1, §2, §3

One may read the IC50 as the point on the concentration scale where inhibition reaches its midpoint. With `COc1ccc(/C=C/c2cccc(NC(=O)Nc3ccccc3OC)c2)cc1` [Compound 24], the IC50 was determined as 7.2 ± 0.6 µM in assay [1]; 11 ± 4 µM in assay [2]; 11 ± 5 µM in assay [3]; 3.5 ± 0.8 µM in assay [4]; 9 ± 4 µM in assay [5]; 3.6 ± 0.6 µM in assay [6].

As for `COc1ccc(/C=C\c2cccc(NC(=O)Nc3cccc(OC)c3)c2)cc1` [Compound 18], the half-inhibitory concentration (IC50) is 4.3 ± 0.3 µM in assay [1]; 17 ± 4 µM in assay [2]; 23 ± 8 µM in assay [3]; 16 ± 3 µM in assay [4]; 24 ± 5 µM in assay [5]; 19 ± 2 µM in assay [6].

`COc1ccc(CCc2cccc(NC(=O)Nc3ccccc3OC)c2)cc1` [Compound 31]: the concentration for half-maximal inhibition (IC50) in assay [1] is over 100 µM; in assay [2], 57 ± 6 µM; in assay [3], 24 ± 5 µM; in assay [4], 13.8 ± 0.8 µM; in assay [5], 24 ± 2 µM; in assay [6], 10 ± 5 µM.

With `COc1ccc(CCc2cccc(NC(=O)Nc3ccc(Br)cc3)c2)cc1` [Compound 30], the 50% inhibitory concentration (IC50) in assay [1] stood at 1.3 ± 0.1 µM; in assay [2] it was 4.9 ± 0.8 µM; in assay [3] it was 11 ± 5 µM; in assay [4], 1.3 ± 0.5 µM; in assay [5] it was 3.7 ± 0.3 µM; in assay [6], 4 ± 2 µM.

For the compound `COc1ccc(/C=C/c2cccc(NC(=O)Nc3ccccc3)c2)cc1` [Compound 20], the 50% inhibitory concentration (IC50) stood at 4 ± 1 µM in assay [1]; 2.5 ± 0.8 µM in assay [2]; 1.6 ± 0.3 µM in assay [3]; 15 ± 2 µM in assay [4]; 42 ± 8 µM in assay [5]; 2.3 ± 0.9 µM in assay [6].

As for `COc1ccc(/C=C/c2cccc(NC(=O)Nc3cccc(Br)c3)c2)cc1` [Compound 22], the 50% inhibitory concentration (IC50) came out at 1.1 ± 0.2 µM in assay [1]; 0.5 ± 0.2 µM in assay [2]; 4 ± 3 µM in assay [3]; 0.7 ± 0.3 µM in assay [4]; 1.5 ± 0.3 µM in assay [5]; 0.6 ± 0.3 µM in assay [6].

Turning to `COc1ccc(/C=C\c2cccc(NC(=O)Nc3ccccc3Br)c2)cc1` [Compound 14], the IC50 in assay [1] stood at 14 ± 2 µM; in assay [2] it was 17 ± 2 µM; in assay [3], 32 ± 14 µM; in assay [4] it was 25 ± 3 µM; in assay [5] it was 26 ± 3 µM; in assay [6] it was 25 ± 10 µM.

Take `COc1ccc(/C=C/c2cccc(NC(=O)Nc3ccccc3Br)c2)cc1` [Compound 21]: the IC50 in assay [1] stood at 1.9 ± 0.4 µM; in assay [2], 1.6 ± 0.2 µM; in assay [3] it was 3 ± 1 µM; in assay [4], 2 ± 0.2 µM; in assay [5] it was 1.7 ± 0.4 µM; in assay [6] it was 1.6 ± 0.3 µM.

Turning to `COc1ccc(CCc2cccc(NC(=O)Nc3ccccc3)c2)cc1` [Compound 27], the IC50 came to 9 ± 4 µM in assay [1]; 9.6 ± 0.6 µM in assay [2]; 12 ± 5 µM in assay [3]; 12.5 ± 0.2 µM in assay [4]; 10 ± 2 µM in assay [5]; 12.8 ± 0.9 µM in assay [6].

In the case of `COc1ccc(CCc2cccc(NC(=O)Nc3cccc(Br)c3)c2)cc1` [Compound 29], the IC50 in assay [1] was 3.8 ± 0.3 µM; in assay [2] it was 11 ± 2 µM; in assay [3] it was 13 ± 3 µM; in assay [4] it was 7.2 ± 0.4 µM; in assay [5] it was 10.7 ± 0.5 µM; in assay [6], 10 ± 4 µM.

Consider `COc1ccc(/C=C\c2cccc(NC(=O)Nc3ccccc3)c2)cc1` [Compound 13], for which the IC50 turned out to be 40 ± 5 µM in assay [1]; 24 ± 5 µM in assay [2]; 34 ± 2 µM in assay [3]; 16 ± 3 µM in assay [4]; 32 ± 8 µM in assay [5]; 30 ± 7 µM in assay [6].

For the compound `COc1ccc(CCc2cccc(NC(=O)Nc3ccccc3Br)c2)cc1` [Compound 28], the half-inhibitory concentration (IC50) in assay [1] worked out at 5 ± 3 µM; in assay [2] it was 7.9 ± 0.5 µM; in assay [3], 7 ± 4 µM; in assay [4] it was 1.7 ± 0.2 µM; in assay [5], 4 ± 3 µM; in assay [6], 5 ± 4 µM.
